Measurements from patent publication US20260234188A1, “CHEMOKINE-BINDING PEPTIDES” (Oxford University Innovation Limited, priority 2022, published 2026).
Entries after “also recorded” stand apart in the source; their conditions may differ.

What was measured:
[1] = tested on: panel of 24 biotinylated chemokines; test: Phage-display screen of HD2 NNK saturation mutagenesis library; assay type: binding, human; conditions: HD2 saturation mutants; chemokines on streptavidin beads; UniProt entry names
Text: (§1) FIG. 7. Exemplar results from phage display screens using saturation mutagenesis. A phage-display library was constructed using the HD2 sequence, replacing each residue encoding codon with the degenerate sequence NNK. The 16 degenerate sequences (which also encoded the parental HD2 sequence) were pooled and cloned into display phage. […] Exemplar peptides were selected such that log 2 E for at least one chemokine was greater than 5, and log 2 E for binding to control (CO5, was less than zero). […] The fold enrichment of parental HD2 is also indicated.
as §1, with “A” for “FIG. 7. Exemplar results from phage display screens using saturation mutagenesis. A”
A molecular level understanding of binding mechanism is needed for development of peptides as therapeutics and is usually obtained from structural analyses. As HD2 binds many chemokines this becomes a challenging task, and we explored if we could elucidate this using phage display mutagenesis. The role of each residue in HD2 for binding was examined in phage-display. A library of HD2 mutations that had NNK substituted at each residue and performed phage-display selection against a panel of 24 biotinylated chemokines, in parallel, as described in Example 7. This strategy allowed us to evaluate the impact not only of Ala substitutions, but also conservative, hydrophilic and hydrophobic substitutions, and compare with binding of parental HD2 which is also included in the library. Ala substitution removes side-chains beyond the β-carbon and can be used to infer the role of side-chain functional groups without affecting conformational flexibility of the backbone. […] These residues are within the two motifs identified previously. Other notable residues identified were Y8 and P10. We next judged the impact of Ala mutation by calculating the change in log 2 E (Δlog 2 E) between the mutant and parental HD2. A positive value of Δlog 2 E indicates increased binding, and a negative value decreased binding compared to parental HD2. […] As may be seen, the log 2 E for the parental HD2 was ~0 in these analyses indicating lack of enrichment.
Oligonucleotide pools were amplified using primers: oligo_fwd: 5′-[…] and oligo_rev2: 5′-tcgtcaccctcggcgcctcctcoggatcctccacc. Oligonucleotide PCR products were cloned into plasmid prSTOP4Nsi using NEB Builder HiFi Assembly following instructions of the manufacturer. The vector pool was used to transform electrocompetent Invitrogen ElectroMAX™ DH5α-E™ cells. Plasmid DNA was harvested by MaxiPrep (GeneJet Plasmid Maxiprep Kit) and was transformed into SS320 phage display electrocompetent cells (Lucigen), following the manufacturer's protocol, resuspended in 950 μL recovery media for each electroporation, transferred to 50 mL Falcon tubes, 100 μL 1011 CFU/mL M13KO7 helper phage (NEB) added and shaken at 37° C., 220 RPM for 1 h. 1 mL recovery culture was added to 2YT medium containing +50 ug/mL carbenicillin and 25 ug/mL kanamycin, and grown overnight at 37C, 220 rpm. Phage was precipitated from the culture supernatant by adding 22.5 mL of supernatant to 4.5 mL 20% PEG 8000/2.5 M NaCl, incubating on ice for 30 min, and centrifuging at 10,000 RPM, 4° C. for 10 min, and resuspending phage in 1 ml of PBT, followed by centrifugation at 13000 RPM, 4° C., for 10 min. […]

[2] = target: T1, CCL3 (Homo sapiens, UniProt P10147); test: CCL3-induced THP-1 cell migration, transwell assay; assay type: cell-based; conditions: HD2 mutant peptides 10 μM, chemokine at EC80
T1 construct: purchased Peprotech
T1 sequence (P10147 24-92): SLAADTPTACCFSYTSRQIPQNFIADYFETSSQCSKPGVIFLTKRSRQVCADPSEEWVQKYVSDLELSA
Procedure: FIG. 2. […] BK1.2 is described in (Darlot, 2020). […] Chemokines used are indicated by the name, followed in parenthesis by the supplier code (P in supplier code indicates Peprotech). […] All experiments were performed at EC80 doses of indicated chemokine. Data are shown as box-whisker plots of three technical and three biological replicates. Statistically significant differences (compared to control, indicated by #), using Dunnett's test with correction for multiple comparisons, are indicated by asterisks: ****=P≤0.0001, ***=P≤0.001, **=P≤0.01, *=P≤0.05.
Briefly, cell migration assays use THP1 cells (human monocyte) and primary human buffy coat white cells (consisting of neutrophil granulocytes, monocytes, and lymphocytes), and activated T-cells. […] Assays are performed in 96-well Boyden chambers, and migrated cells counted and characterized using and ATTUNE Flow Cytometer as described. […]
The J:CXCR1 cell line was generated by transfecting Jurkat cells by electroporation with PvuI-linearized plasmid D1398 and selecting with blasticidin (Sigma-Aldrich, Cat #203350, 5 g/mL). […] Cell counts were determined by Attune NxT Flow Cytometer Plate Reader (ThermoFisher), based on cell size parameters FSC-H/SSC-H. Experiments were performed in 3 technical and 3 biological replicates. […] Statistical significances between control experimental groups was evaluated using Dunnett's test. […]

EEDDYTAYAPLWCYFT [HD2_W12]
Chemokines Bound log2E 1-5 [1]: CCL1, CCL15, CCL17, CCL18,; also recorded: CCL19, CCL20, CCL22, CCL25,; also recorded: CCL28, CCL4, X3CL1, SDF1,; also recorded: CXL14
Chemokines Bound log2E > 5 [1]: CCL3
chemotaxis compared with the parental HD2 peptide [2]: significant reduction in chemotaxis
